Data on 2 compounds can be found in patent US12403132B2, “Methods of treating bone marrow failure syndromes and compositions for use in the same” (The Board of Trustees of the Leland Stanford Junior …, priority 2020, dated 2025).

In data set [1] the test system is S6K. Briefly: S6K phosphorylation in differentiating RPS19-insufficient CD34+ progenitors. Format: cell-based, human. Conditions: 5 μM, differentiating RPS19-insufficient cells. The protocol:
FIG. 5. NLK-mediated phosphorylation of raptor leads to reduced mTOR activity and increased autophagy. (a) Fetal liver CD34+ progenitors were transduced with controls or shRPS19 and differentiated for 5 days in the presence or absence of 5 μM BI-D1870 (RSK inhibitor). Samples were lysed and normalized for protein abundance before being subjected to immunoprecipitation of NLK, raptor, S6K and 4E-BP1. Immunoprecipitated NLK was utilized to examine NLK activity (a—top panel—Orange, blue and green depict NLK, Myb and raptor phosphorylation respectively), while raptor, S6K and 4E-BP1 were subjected to western blotting for phosphorylated serine/threonine residues (bottom panels). In parallel, lysates were probed for total raptor, S6K, 4E-BP1, NLK and GAPDH (bottom panels) by Western blotting. […] (d) Cells treated as above were plated in 96 wells and absorbance measured at a wavelength of 520 nm. […] After imagining, 100 cells per group were analyzed and the number of intense fluorescent puncta per cell was scored (lower panels).
Raptor is the regulatory component of the mTOR Complex 1 and a substrate of NLK in osmotic and oxidative stress. […] We determined immuno-purified NLK from human and murine RPS19- and RPL11-insufficient progenitors, as well as derived from DBA patients can phosphorylate raptor in vitro (FIGS. 1-4). […]

Data set [2] concerns the target T1, NLK (Homo sapiens, UniProt Q9UBE8).
T1 sequence (Q9UBE8 1-527): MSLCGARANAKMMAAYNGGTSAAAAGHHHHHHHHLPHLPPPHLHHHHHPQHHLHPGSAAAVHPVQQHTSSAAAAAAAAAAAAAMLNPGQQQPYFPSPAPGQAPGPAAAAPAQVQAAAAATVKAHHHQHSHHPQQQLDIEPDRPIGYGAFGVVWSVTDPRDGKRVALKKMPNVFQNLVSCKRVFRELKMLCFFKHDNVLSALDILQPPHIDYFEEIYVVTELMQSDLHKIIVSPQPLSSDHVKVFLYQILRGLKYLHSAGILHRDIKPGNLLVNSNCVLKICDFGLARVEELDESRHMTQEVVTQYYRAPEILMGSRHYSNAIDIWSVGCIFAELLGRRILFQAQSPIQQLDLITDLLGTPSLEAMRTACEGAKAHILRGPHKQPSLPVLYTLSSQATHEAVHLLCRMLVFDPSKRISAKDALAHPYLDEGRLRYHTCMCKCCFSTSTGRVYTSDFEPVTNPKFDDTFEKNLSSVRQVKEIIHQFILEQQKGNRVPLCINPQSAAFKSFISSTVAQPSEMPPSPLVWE
Briefly: NLK inhibition by OTS167 in DBA models. From the text:
(§1) IV. Nemo-like kinase (NLK) is hyperactivated in red cell precursors in the bone marrow of patients with DBA. Inhibition of NLK by knockdown or chemical compounds in our in vitro DBA models results in improvement of red cell production. Regardless of the underlying genetic mutation causing DBA, NLK is hyperactivated. […] Our goal is to next test OTS167 in mouse models of DBA. According to clinical trials.gov, OTS167 is currently in trials for AML, ALL, MDS, MPN, and CML, solid tumors, and breast cancer, but not DBA. This is the first example of a targeted therapy for all DBA patient regardless of the underlying mutations. Giving this drug would be easier and cheaper than gene editing to correct the gene defect.

Data set [3] deals with red cell production. Briefly: Red cell production in in vitro DBA models. Format: cell-based.
Excerpt: as §1

In data set [4] the test system is normal bone marrow cells. Briefly: Toxicity to normal bone marrow cells. Format: cell-based. The settings on record: in vitro.
Excerpt: as §1

Molecules are shown by their SMILES.

For `CC(C)CCN1c2nc(Nc3cc(F)c(O)c(F)c3)ncc2N(C)C(=O)C1C` (stereo not shown) [BI-D1870], the S6K phosphorylation result in data set [1] is “reduced to below basal levels”.

For the compound `CC(=O)c1cnc2ccc(-c3cc(Cl)c(O)c(Cl)c3)nc2c1N[C@H]1CC[C@H](CN(C)C)CC1` [OTS167], in data set [2], the “inhibition of NLK” value is reported as “inhibit NLK”. Further, the “red cell production in vitro” value in data set [3] is “improves red cell production”. The “toxicity to normal bone marrow cells” value in data set [4] is recorded as “without toxicity”.
